A short description of the data set: Serum concentration over time after transdermal application of the drug patch on microporated skin (FIG. 10a, 10b). It counts as in vivo. The following applies: over a short period of about two hours. From the text: The drug is entering the permeation surface by passive diffusion. The amount of drug entering the permeation surface is mainly determined by the permeation surface A(t) over time, as long as the patch 5 provides a sufficient amount of drug. Preferably the patch 5 is able to provide much larger quantities of drug than the permeation surface A(t) is able to absorb. Preferably the patch 5 is able to provide a sufficient concentration level of the permeant at the permeation surface over a period of time during with the permeant is applied. Therefore, the serum concentration as a function of time can be determined by an appropriate poration of the skin 1 with an initial microporation.
FIG. 10a to 10b show the administration of the same drug, for example 100 mg acetylsalicylic acid, the drug being arranged on the skin 1 as disclosed in FIG. 3c. Depending on the permeation surface A(t) as a function of time, the level of the serum concentration as well as the time period within which the drug is released, can be predescribed. In FIG. 10a the permeation surface A(t), not shown in detail, is chosen such that the maximal serum concentration is about 25 g/l over a short period of time of about two hours. […]

`CC(=O)Oc1ccccc1C(=O)O` [acetylsalicylic acid]: the maximal serum concentration result was “about 25 g/l” (FIG. 10a, 100 mg acetylsalicylic acid on porated skin (transdermal application TD)) and “about 30 g/l” (FIG. 10b, fast application (turbo), 100 mg acetylsalicylic acid on porated skin).

Source of the values: patent US20090306576A1, “System for Transmembrane Administration of a Permeant and Method for Administering a Permeant” (Pantec Biosolutions AG, priority 2005, published 2009).
